“And” between values parts separate entries of the source, which are not always exact repeats. Identical values can stand only once. Like-named read-outs stand apart in the source and are kept apart here.
Assays:
PqsD protein [1] = molecular target: T1, PqsD protein (Pseudomonas aeruginosa, UniProt P20582); experiment: Determination of kinetic parameters of PqsD (HHQ formation, HPLC-MS2); format: biochemical, Pseudomonas aeruginosa UCBPP-PA14
T1 construct: The 1-kb NdeI-EcoRI fragment of pqsD was cloned between the NdeI and EcoRI sites of pET28b(+), resulting in pET28b(+)-pqsD; fused on or other part: N-terminal His tag from pET28b(+)
T1 sequence (P20582 1-337): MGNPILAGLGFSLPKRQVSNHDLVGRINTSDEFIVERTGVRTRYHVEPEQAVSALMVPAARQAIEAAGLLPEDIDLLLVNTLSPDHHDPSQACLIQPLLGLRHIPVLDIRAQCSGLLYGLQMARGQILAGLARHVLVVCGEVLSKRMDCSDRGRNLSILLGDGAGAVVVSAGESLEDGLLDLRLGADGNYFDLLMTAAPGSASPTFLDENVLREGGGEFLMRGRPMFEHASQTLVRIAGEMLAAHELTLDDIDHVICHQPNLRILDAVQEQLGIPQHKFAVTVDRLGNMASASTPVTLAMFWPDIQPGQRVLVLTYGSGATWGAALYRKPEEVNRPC
Method: Experimental protocol. […] The carbon-carbon bond formation between carbons 3 and 4 of the quinoline ring is likely to be catalyzed by one of the proteins PqsB, PqsC or PqsD which show all homology to the β-ketoacyl-acyl carrier protein synthase III family. To test of whether PqsD is necessary for HHQ formation, we purified recombinant PqsD protein and tried to readjust HHQ formation in vitro. The heterologous protein was incubated with anthraniloyl-CoA and 3-oxodecanoic acid and the reaction was analyzed by HPLC-MS.
HHQ quantification by HPLC-MS^2—HPLC-MS analysis was carried out using a HPLC system from the Agilent 1100 series coupled to a Brucker Daltonics HCTultra ESI-MS iontrap instrument operated in positive ionization mode. For separation a Onyx Monolythic C18 column (50×2 mm, Phenomenex) was used. […] For HHQ quantification the signal intensities of fragment ion 159.0 Da created by fragmentation of 244.0 Da were used. For creation of the standard curve HHQ standards containing 1, 5, 10, 20, 50, 100 and 200 ng ml^−1 were measured.
The reaction mixtures contained 50 mM Tris-HCl, pH 8.0, PqsD protein (1 μg), 0.2 mM anthraniloyl-CoA and 3-oxodecanoic acid ranging in concentration from 0.02 to 2 mM in a total volume of 50 μl. […] HHQ was quantified by HPLC by injecting 10 μl of the reaction mixture. […]

PqsD protein [2] = molecular target: T1, PqsD protein; experiment: Inhibition of HHQ formation by PqsD in vitro (HPLC-MS2 quantification of HHQ); format: biochemical, Pseudomonas aeruginosa UCBPP-PA14; conditions: 0.2 mM anthraniloyl-CoA, 0.35 mM 3-oxodecanoic acid, 1 μg PqsD, 2 min preincubation, 2 min at 37° C., pH 8.0
Method: Experimental protocol. With the PqsD assay established so far, it is possible to screen for possible inhibitors of HHQ formation by PqsD in vitro. For this purpose the concentrations of anthraniloyl-CoA, 3-oxodecanoic acid and PqsD protein are assigned to fixed values. At first PqsD, anthraniloyl-CoA and the compound to be tested are preincubated for a fixed period. The putative inhibitor is added to the assay in increasing concentrations. The reaction is started by the addition of 3-oxodecanoic acid and incubated for a fixed period. Then the reaction is quenched by the addition of methanol to a final concentration of 50 percent. For each reaction the HHQ formation is quantified by HPLC/MS^2. By comparing the amounts of HHQ formed in presence of the different concentrations of the inhibitor to that of a control reaction without inhibitor, it can be calculated for the inhibitor concentration at which HHQ formation is 50 percent of the control reaction (IC50). […]
HHQ quantification by HPLC-MS^2—HPLC-MS analysis was carried out using a HPLC system from the Agilent 1100 series coupled to a Brucker Daltonics HCTultra ESI-MS iontrap instrument operated in positive ionization mode. […] For HHQ quantification the signal intensities of fragment ion 159.0 Da created by fragmentation of 244.0 Da were used. […]

Compound | Km (PqsD protein [1]; fixed anthraniloyl-CoA 200 μM, varied 3-oxodecanoic acid 0.02 to 2 mM, 37° C., pH 8.0, triplicates, read-out: Km value of PqsD for 3-oxodecanoic acid) [µM] | Km (PqsD protein [1]; fixed anthraniloyl-CoA, varied 3-oxodecanoic acid concentrations, FIG. 4, read-out: Km value of PqsD (figure legend)) [µM] | IC50 (PqsD protein [2])
CCCCCCCC(=O)CC(=O)O [3-oxodecanoic acid] | 562 ± 91 | 560 | 
O=C(Nc1ccccc1C(=O)O)c1ccc(-c2ccccc2)c(Oc2ccccc2)c1 [2-[(2-phenoxybiphenyl-4-carbonyl)amino]benzoic acid] |  |  | 35 µM and ~35 µM

Source: patent US20130123360A1, “METHODS AND USES RELATING TO THE IDENTIFICATION OF COMPOUND ASSOCIATED WITH BACTERIAL INFECTION” (SANOFI-AVENTIS DEUTSCHLAND GMBH, priority 2010, published 2013)
